Source: article PMC12375108 (Nature Communications, 2025)
pKd: −log10 of the molar value.

Legend:
Format in all cases: binding
[1] = target: T1, E. coli hinT H101N (Ec hinT^HN) (Escherichia coli, UniProt P0ACE7, H101N); assay: isothermal titration calorimetry
T1 construct: expressed from pProEx in E. coli BL21, 6xHis cut by TEV, SEC; ATG replaces native TTG start
T1 sequence (P0ACE7 1-119 H101N): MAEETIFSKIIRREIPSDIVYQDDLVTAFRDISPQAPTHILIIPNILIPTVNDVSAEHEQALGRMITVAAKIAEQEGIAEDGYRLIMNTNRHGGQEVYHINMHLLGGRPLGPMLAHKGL

[2] = target: T2, T. marianensis hinT H100N (Tm hinT^HN) (Thermaerobacter marianensis, UniProt E6SKA2, H100N); assay: isothermal titration calorimetry
T2 construct: gene Tmar_2180; expressed from pProEx in E. coli BL21, 6xHis cut by TEV, SEC

[3] = target: T3, H. sapiens hinT H112N (human hinT^HN) (Homo sapiens, UniProt P49773, H112N); assay: isothermal titration calorimetry
T3 construct: gene HINT1
T3 sequence (P49773 1-126 H112N): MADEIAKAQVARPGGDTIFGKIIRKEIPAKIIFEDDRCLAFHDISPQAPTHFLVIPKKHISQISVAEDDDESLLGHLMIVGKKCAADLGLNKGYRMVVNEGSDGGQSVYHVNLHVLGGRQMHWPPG

[4] = target: T3, H. sapiens hinT H112N (human hinT^HN); assay: competition pulldown with sucA-AMP, α-AMP immunoblot; conditions: GST-tagged hinT on beads, sucA-AMP 470 nM, GMP up to 11.75 μM, TBS with Triton X-100, 1 mM DTT, 4 °C; competitive

| Compound | pKd [1] | pKd [2] | pKd [3] | competition pulldown with sucA-AMP, α-AMP immunoblot [4] |
| --- | --- | --- | --- | --- |
| Nc1ncnc2c1ncn2[C@@H]1O[C@H](COP(=O)(O)O)[C@@H](O)[C@H]1O [AMP] | 4.16 | 5.52 | 6.55 | – |
| Nc1nc2c(ncn2[C@@H]2O[C@H](COP(=O)(O)O)[C@@H](O)[C@H]2O)c(=O)[nH]1 [GMP] | – | – | – | increasing concentrations of GMP showed weaker competition with AMPylated proteins for binding to Hs hinT^HN |
